Key:
pain = conditions: Crosby et al., 2000; cited from earlier work
brain injury = experiment: Loss of cognitive functions (ability to learn a new spatial task) following brain injury; format: in vivo, animals; conditions: single agent alone
Description: The discovery of a synergistic effect between PEG, a biomembrane sealing agent, and magnesium is highly significant as it can lead to the development of therapeutic formulations with improved efficacy for the treatment of neuronal trauma, inflammatory and painful conditions.

stroke = conditions: intravenous, up to 12 hours following stroke onset, 2589 patients (Muir et al., 2004); cited from earlier work
TBI = conditions: University of Washington trial initiated in 1999, preliminary data; cited from earlier work

Structure (SMILES) | duration of analgesic effects (pain) [h] | effect on the loss of cognitive functions following brain injury (brain injury) | clinical improvement after stroke (stroke) | outcome of magnesium sulfate therapy in TBI patients (TBI)
[Mg+2] [magnesium] | ≤ 4 | no effect |  | 
O=S(=O)([O-])[O-].[Mg+2] [magnesium sulfate] |  |  | no significant improvement | negative

Reference: patent publication US20090263507A1, “BIOLOGICAL MARKERS AND RESPONSE TO TREATMENT FOR PAIN, INFLAMMATION, NEURONAL OR VASCULAR INJURY AND METHODS OF USE” (Warsaw Orthopedic, Inc., priority 2008, published 2009)
